The values below come from US5061711A, “Method of curing liver diseases by using pyrrolo quinoline quinone triesters and novel pyrrolo quinoline quinone triesters” (Mitsubishi Gas Chemical Company, Inc., priority 1989, dated 1991).

The test system of one series is male mice SPF-ICR. The experiment in a line: Acute toxicity test. The following applies: mouse, in vivo, ip. The method, then: To male mice SPF-ICR five weeks old (supplied by Japan Charles River Co.) were intraperitoneally administered PQQ.2Na, PQQ trimethyl ester and PQQ triallyl ester at dosages of 40, 80, 160 and 200 mg per kg of body weight of mouse, respectively and they were bred for 14 days at 25° C. One group consisted of 8 mice. For administration, PQQ.2Na was dissolved in physiological saline and PQQ trimethyl ester and PQQ triallyl ester were suspended in 1%Tween 80-containing physiological saline, respectively.

The test system of series [1] is mice. Briefly: Kidney toxicity determined by urine test. Type of series: in vivo, mouse. The following applies: mouse, in vivo, ip. The method, then: (2) Kidney toxicity determined by urine test
PQQ.2Na, PQQ trimethyl ester and PQQ triallyl ester were intraperitoneally administered to mice and they were bred in the same manner as in the above acute toxicity test. The doses per kg of body weight of mouse were 20, 40 and 80 mg for PQQ.2Na and 20, 40, 80, 160 and 200 mg for PQQ triesters. Urine was collected every day and glucose concentration was examined using clinical examination reagent (trademark: […] II manufactured by Miles.Sankyo Co.).

Series [2] concerns mice. Briefly: Kidney toxicity determined by blood examination. The settings on record: mouse, in vivo, ip. Type of series: in vivo, mouse. The procedure: (3) Kidney toxicity determined by blood examination:
After lapse of one day from the administration, the mice were fasted (only water was given) and then after 18 hours, blood was collected and serum was obtained therefrom. Glucose, urea nitrogen and creatinine in the serum were examined by clinical examination reagent (trademark: FUJI DRYCHEMSLIDE manufactured by Fuji Photo Film Co., Ltd.). The results are shown by average value of eight mice in Table 3.

For series [3] the following is noted: bovine, not told, 960 min.
Procedure: Each compound dissolved in 10 mM HEPES buffer (containing 1%DMSO in the case of PQQ triesters) was put in an apparatus for measurement of membrane permeation constant and left to stand for 16 hours at 35 ° C. and then amount of the compound which migrated was measured by ultraviolet absorption (243 nm for PQQ 2Na and 255 nm for PQQ triester) to obtain membrane permeation constant.
Another series can be described thus: Solubility. Type of series: physicochemical.
In the next series the test system is liver diseases. The settings on record: cited from earlier work.
In another series the test system is kidney. The following applies: Watanabe et al 1989; cited from earlier work.

Like-named read-outs stand apart in the source and are kept apart here.

As to `O=C(O)c1cc(C(=O)O)c2c(n1)C(=O)C(=O)c1cc(C(=O)O)[nH]c1-2` [PQQ.2Na, reference compound], the mice died entry in the series on male mice SPF-ICR (40 mg/kg) is listed as “No mice died”; in the series on male mice SPF-ICR (80 mg/kg), “five mice died”; in the series on male mice SPF-ICR (160 mg/kg) it was “eight mice all died”; in the series with male mice SPF-ICR (200 mg/kg), “eight mice all died”. The “glucose in urine (in words)” value in the series on mice [1] is on record as “glucose was detected”. Besides, the glucose in urine result with mice [1] (20 mg/kg), in the series on mice [1] (40 mg/kg) and with mice [1] (80 mg/kg) was “-” in each case. Moreover, the “creatinine in serum (in words)” value in the series with mice [2] was “much increase”. For the same compound, in the series with mice [2], the “glucose in serum (in words)” value is “Sharp reduction”. The “kidney toxicity (in words)” value in the series with mice [2] was “kidney toxicity was observed”. Moreover, in the series with mice [2], the “urea nitrogen in serum (in words)” value is “much increase”. In addition, the Creatinine in serum is 0.5 mg/dL with mice [2] (20 mg/kg), 2.3 mg/dL in the series with mice [2] (40 mg/kg), 3.4 mg/dL in the series with mice [2] (80 mg/kg) and 4.2 mg/dL in the series with mice [2] (160 mg/kg). Further, the Glucose in serum in the series on mice [2] (20 mg/kg) turned out to be 70 mg/dL; in the series with mice [2] (40 mg/kg), 60 mg/dL; in the series on mice [2] (80 mg/kg), 57 mg/dL; with mice [2] (160 mg/kg), 35 mg/dL. Further, the “Urea nitrogen in serum” value in the series with mice [2] (20 mg/kg) was 21 mg/dL; in the series on mice [2] (40 mg/kg) it was 110 mg/dL; with mice [2] (80 mg/kg), 130 mg/dL; with mice [2] (160 mg/kg), 139 mg/dL. Further, the Membrane permeation constant in series [3] is given as 0.68 ± 0.36 10^-7 cm^2 · sec^-1.

On to `O=C(OCc1ccccc1)c1cc(C(=O)OCc2ccccc2)c2c(n1)C(=O)C(=O)c1cc(C(=O)OCc3ccccc3)[nH]c1-2` [PQQ tribenzyl ester], for which the Solubility result in “Solubility” (acetone) is reported as “Very soluble”; in the series “Solubility” (chloroform), “Very soluble”; in the series “Solubility” (ethanol), “Very soluble”; in “Solubility” (methanol), “Very soluble”; in the series “Solubility” (water), “hardly soluble”.

For the compound `CCOC(=O)c1cc(C(=O)OCC)c2c(n1)C(=O)C(=O)c1cc(C(=O)OCC)[nH]c1-2` [PQQ triethyl ester], in series [3], the Membrane permeation constant is given as 1.22 ± 0.37 10^-7 cm^2 · sec^-1 and the “membrane permeation constant relative to that of PQQ.2Na” value is listed as “about 2 times”.

Regarding `O=C(O)c1cc(C(=O)O)c2c(n1)C(=O)C(=O)c1cc(C(=O)O)[nH]c1-2` [PQQ, pyrrolo quinoline quinone], the “kidney toxicity by urine test (in words)” value in the series on mice [1] is on record as “showed kidney toxicity”. The “inhibition of liver diseases” value is “inhibit liver diseases” in the series on liver diseases (administered intraperitoneally, Japanese Patent Kokai No. 63-192717) and “not observed” in the series on liver diseases (orally administered, Watanabe et al 1988). Besides, the kidney toxicity result with kidney is reported as “has kidney toxicity”.
